Experimental data published in patent US9603364B2 (Dow AgroSciences LLC, priority 2013, dated 2017).

Columns and labels:
Experiment in all cases: General post-emergent herbicidal activity, foliar application
Assay type in all cases: in vivo
Oryza sativa L. (rice) = settings: Oryza sativa, 336 h, scored after 14 days, read-out: % Visual Growth Reduction ORYSA; for plant injury at 35 g/ha: 35 g ai/ha; for plant injury at 70 g/ha: 70 g ai/ha; for plant injury at 140 g/ha: 140 g ai/ha; for plant injury at 280 g/ha: 280 g ai/ha
Protocol: (§1) A weighed amount, determined by the highest rate to be tested, of each test compound was placed in a 25 mL glass vial and was dissolved in 4 mL of a 97:3 v/v (volume/volume) mixture of acetone and dimethyl sulfoxide to obtain concentrated stock solutions which will be referred to as General Purpose Solvent. […] The concentrated stock solutions obtained were diluted with 20 mL of an aqueous mixture containing water, General Purpose Solvent, isopropyl alcohol, Atplus 411F crop oil concentrate, and Triton X-155 surfactant in a 46:42:12:1.0:0.02 v/v ratio to obtain spray solutions containing the highest application rates. Additional application rates were obtained by serial dilution of 12 mL of the high rate solution into a solution containing 2 mL of 97:3 v/v (volume/volume) mixture of acetone and dimethyl sulfoxide and 10 mL of an aqueous mixture containing water, General Purpose Solvent, isopropyl alcohol, Atplus 411F crop oil concentrate, and Triton X-155 surfactant in a 46:42:12:1.0:0.02 v/v ratio to obtain 1/2×, 1/4×, 1/8× and 1/16× rates of the high rate. […] Control plants were sprayed in the same manner with the solvent blank.
(§2) The treated plants and control plants were placed in a greenhouse as described above and watered by sub-irrigation to prevent wash-off of the test compounds. After 14 days, the condition of the test plants as compared with that of the untreated plants was determined visually and scored on a scale of 0 to 100 percent where 0 corresponds to no injury and 100 corresponds to complete kill.

Zea mays L. (corn) = settings: 336 h, scored after 14 days, read-out: % Visual Growth Reduction ZEAMX; for plant injury at 35 g/ha: 35 g ai/ha; for plant injury at 70 g/ha: 70 g ai/ha; for plant injury at 140 g/ha: 140 g ai/ha; for plant injury at 280 g/ha: 280 g ai/ha
Protocol: as §1, §2

[1] = tested on: Echinochloa crus-galli (L.) Beauv. (barnyardgrass); settings: for pest or weed control at 35 g/ha / pest or weed control at 70 g/ha / pest or weed control at 140 g/ha / pest or weed control at 280 g/ha: Echinochloa crus-galli, 336 h, foliar post-emergent, scored after 14 days, read-out: % Visual Growth Reduction ECHCG; for pest or weed control at 35 g/ha: 35 g ai/ha; for pest or weed control at 70 g/ha: 70 g ai/ha; for pest or weed control at 140 g/ha: 140 g ai/ha; for pest or weed control at 280 g/ha: 280 g ai/ha; for GR80 Value ECHCG: calculated by probit analysis, dose for 80% visual injury, may be extrapolated
Protocol: as §1, §2
(§3) By applying the well-accepted probit analysis as described by J. Berkson in […], 48, 565 (1953) and by D. Finney in “Probit Analysis” Cambridge University Press (1952), the dose response data gathered as expressed above can be used to calculate GR20, GR50 and GR80 values, which are defined as growth reduction factors that correspond to the effective dose of herbicide required to kill or control 20 percent, 50 percent or 80 percent, respectively, of a target plant. Data not expressed in Table A may have been used to calculate some of the GR80 values in Table B. In some cases, the GR80 values may be extrapolations calculated based on the slope of the dose response curve for individual compounds listed in Table B.

[2] = tested on: Amaranthus retroflexus L. (pigweed, redroot); settings: for pest or weed control at 35 g/ha / pest or weed control at 70 g/ha / pest or weed control at 140 g/ha / pest or weed control at 280 g/ha: Amaranthus retroflexus, 336 h, foliar post-emergent, scored after 14 days, read-out: % Visual Growth Reduction AMARE; for pest or weed control at 35 g/ha: 35 g ai/ha; for pest or weed control at 70 g/ha: 70 g ai/ha; for pest or weed control at 140 g/ha: 140 g ai/ha; for pest or weed control at 280 g/ha: 280 g ai/ha; for GR80 Value AMARE: calculated by probit analysis, dose for 80% visual injury, may be extrapolated
Protocol: as §1, §2, §3

[3] = tested on: Chenopodium album L. (lambsquarters, common); settings: for pest or weed control at 35 g/ha / pest or weed control at 70 g/ha / pest or weed control at 140 g/ha / pest or weed control at 280 g/ha: Chenopodium album, 336 h, foliar post-emergent, scored after 14 days, read-out: % Visual Growth Reduction CHEAL; for pest or weed control at 35 g/ha: 35 g ai/ha; for pest or weed control at 70 g/ha: 70 g ai/ha; for pest or weed control at 140 g/ha: 140 g ai/ha; for pest or weed control at 280 g/ha: 280 g ai/ha; for GR80 Value CHEAL: calculated by probit analysis, dose for 80% visual injury, may be extrapolated
Protocol: as §1, §2, §3

[4] = tested on: Helianthus annuus L. (sunflower, common); settings: for pest or weed control at 35 g/ha / pest or weed control at 70 g/ha / pest or weed control at 140 g/ha / pest or weed control at 280 g/ha: Helianthus annuus, 336 h, foliar post-emergent, scored after 14 days, read-out: % Visual Growth Reduction HELAN; for pest or weed control at 35 g/ha: 35 g ai/ha; for pest or weed control at 70 g/ha: 70 g ai/ha; for pest or weed control at 140 g/ha: 140 g ai/ha; for pest or weed control at 280 g/ha: 280 g ai/ha; for GR80 Value HELAN: calculated by probit analysis, dose for 80% visual injury, may be extrapolated
Protocol: as §1, §2, §3

[5] = tested on: Euphorbia heterophylla L. (poinsettia, wild); settings: for pest or weed control at 35 g/ha / pest or weed control at 70 g/ha / pest or weed control at 140 g/ha / pest or weed control at 280 g/ha: Euphorbia heterophylla, 336 h, foliar post-emergent, scored after 14 days, read-out: % Visual Growth Reduction EPHHL; for pest or weed control at 35 g/ha: 35 g ai/ha; for pest or weed control at 70 g/ha: 70 g ai/ha; for pest or weed control at 140 g/ha: 140 g ai/ha; for pest or weed control at 280 g/ha: 280 g ai/ha; for GR80 Value EPHHL: calculated by probit analysis, dose for 80% visual injury, may be extrapolated
Protocol: as §1, §2, §3

[6] = tested on: Viola tricolor L. (pansy); settings: for pest or weed control at 35 g/ha / pest or weed control at 70 g/ha / pest or weed control at 140 g/ha / pest or weed control at 280 g/ha: Viola tricolor, 336 h, foliar post-emergent, scored after 14 days, read-out: % Visual Growth Reduction VIOTR; for pest or weed control at 35 g/ha: 35 g ai/ha; for pest or weed control at 70 g/ha: 70 g ai/ha; for pest or weed control at 140 g/ha: 140 g ai/ha; for pest or weed control at 280 g/ha: 280 g ai/ha; for GR80 Value VIOTR: calculated by probit analysis, dose for 80% visual injury, may be extrapolated
Protocol: as §1, §2, §3

| Compound | plant injury at 140 g/ha (Oryza sativa L. (rice)) | plant injury at 280 g/ha (Oryza sativa L. (rice)) | plant injury at 140 g/ha (Zea mays L. (corn)) | plant injury at 280 g/ha (Zea mays L. (corn)) | pest or weed control at 140 g/ha [1] | pest or weed control at 280 g/ha [1] | GR80 Value ECHCG [1] | pest or weed control at 140 g/ha [2] | pest or weed control at 280 g/ha [2] | GR80 Value AMARE [2] | pest or weed control at 140 g/ha [3] | pest or weed control at 280 g/ha [3] | GR80 Value CHEAL [3] | pest or weed control at 140 g/ha [4] | pest or weed control at 280 g/ha [4] | GR80 Value HELAN [4] | pest or weed control at 140 g/ha [5] | pest or weed control at 280 g/ha [5] | GR80 Value EPHHL [5] | pest or weed control at 140 g/ha [6] | also measured |
| --- | --- | --- | --- | --- | --- | --- | --- | --- | --- | --- | --- | --- | --- | --- | --- | --- | --- | --- | --- | --- | --- |
| COC(=O)c1nc(CF)c(Cl)c(N)c1Cl [Compound F1, Methyl 4-amino-3,5-dichloro-6-(fluoromethyl)picolinate] | 0% | 0% | 0% | 0% | 0% | 0% | >280 g ai/ha | 80% | 90% | 142 g ai/ha | 90% | 90% | 17.5 g ai/ha | 100% | 100% | <17.5 g ai/ha | 100% | 100% | 26.2 g ai/ha | 10% | plant injury at 35 g/ha (Oryza sativa L. (rice)): 0%; plant injury at 70 g/ha (Oryza sativa L. (rice)): 0%; plant injury at 35 g/ha (Zea mays L. (corn)): 0%; plant injury at 70 g/ha (Zea mays L. (corn)): 0%; pest or weed control at 35 g/ha [1]: 0%; pest or weed control at 70 g/ha [1]: 0%; pest or weed control at 35 g/ha [2]: 55%; pest or weed control at 70 g/ha [2]: 60%; pest or weed control at 35 g/ha [3]: 90%; pest or weed control at 70 g/ha [3]: 90%; pest or weed control at 35 g/ha [4]: 100%; pest or weed control at 70 g/ha [4]: 100%; pest or weed control at 35 g/ha [5]: 100%; pest or weed control at 70 g/ha [5]: 100%; pest or weed control at 35 g/ha [6]: 0%; pest or weed control at 70 g/ha [6]: 0%; pest or weed control at 280 g/ha [6]: 10%; GR80 Value VIOTR [6]: >280 g ai/ha |
| Nc1c(Cl)c(CF)nc(C(=O)O)c1Cl [Compound F25, 4-Amino-3,5-dichloro-6-(fluoromethyl)picolinic acid] | 0% | 0% | 0% | 0% | 0% | 50% | 373 g ai/ha | 80% | 85% | 180 g ai/ha | 80% | 80% | 176 g ai/ha | 80% | 90% | 146 g ai/ha | 100% | 100% | <17.5 g ai/ha | 0% | pest or weed control at 280 g/ha [6]: 0%; GR80 Value VIOTR [6]: >280 g ai/ha |
| CC(F)c1cc(N)c(Cl)c(C(=O)O)n1 (centres unmarked) [Compound F24, 4-Amino-3-chloro-6-(1-fluoroethyl)picolinic acid] | 0% | 10% | 0% | 10% | 80% | 90% | 165 g ai/ha | 100% | 100% | 12.3 g ai/ha | 100% | 100% | <17.5 g ai/ha | 75% | 80% | 199 g ai/ha | 90% | 95% | 122 g ai/ha | 100% | plant injury at 35 g/ha (Oryza sativa L. (rice)): 0%; plant injury at 70 g/ha (Oryza sativa L. (rice)): 0%; plant injury at 35 g/ha (Zea mays L. (corn)): 0%; plant injury at 70 g/ha (Zea mays L. (corn)): 0%; pest or weed control at 35 g/ha [1]: 0%; pest or weed control at 70 g/ha [1]: 55%; pest or weed control at 35 g/ha [2]: 90%; pest or weed control at 70 g/ha [2]: 100%; pest or weed control at 35 g/ha [3]: 100%; pest or weed control at 70 g/ha [3]: 100%; pest or weed control at 35 g/ha [4]: 50%; pest or weed control at 70 g/ha [4]: 65%; pest or weed control at 35 g/ha [5]: 5%; pest or weed control at 70 g/ha [5]: 80%; pest or weed control at 35 g/ha [6]: 85%; pest or weed control at 70 g/ha [6]: 100%; pest or weed control at 280 g/ha [6]: 100%; GR80 Value VIOTR [6]: 36.7 g ai/ha |
